Experimental data published in patent US6187807A, “Methods of use and compositions of (S) (-)-amisulpride” (Sanofi-Synthelabo, priority 1999, dated 2001).

Experiments:
in vivo [1] = conditions: rat, ip, 20 min recording, 30 min after drug, read-out: Decrease in spontaneous locomotor activity (ED50)
Experimental: (§1) The propensity of the drugs to induce extrapyramidal side effects was assessed by measuring their potential to induce catalepsy and to antagonize apomorphine-induced stereotyped behaviour and the sedative potential of the drugs was evaluated by their capacity to decrease spontaneous locomotor activity in the rat.
Spontaneous locomotor activity was measured for 20 min immediately after rats were placed in the activity cages, 30 min after drug treatment.

[2] = system: apomorphine-induced hypermotility; assay: Antagonism of apomorphine-induced hypermotility; conditions: Rattus norvegicus, ip, 0.5 h, read-out: Antagonism of apomorphine-induced hypermotility (ED50)
From the text: These experimental conditions produce low baseline locomotor activity suitable for assessing increases in locomotion produced by apomorphine.

in vivo [3] = conditions: rat, ip, measured 2 hours and 4 hours after drug, read-out: Induction of catalepsy (ED50)
Experimental: as §1
The occurrence of catalepsy in rats was assessed using the four-cork test. This measurement was performed by placing each paw of the rat on a 2.5 cm high cork (diameter 1.2 cm). Distance between contralateral corks was 8 cm and between ipsilateral corks 13 cm. Catalepsy time was measured for a maximum of 2 min at 2 hours, and 4 hours after ip drug treatment.

[4] = system: d-amphetamine-induced hypermotility; assay: Antagonism of d-amphetamine-induced hypermotility; conditions: for ED50: Rattus norvegicus, ip, 0.5 h, read-out: Antagonism of d-amphetamine-induced hypermotility (ED50)
Experimental: d-Amphetamine-induced hyperactivity was recorded for 20 min, 30 min after injection of d-amphetamine (2 mg/kg, ip) immediately after placing rats in the activity cages without habituation according to Gh.

[5] = system: apomorphine-induced stereotypies; assay: Antagonism of apomorphine-induced stereotypies; format: in vivo; conditions: comparison in words
Experimental: as §1
(§2) For scoring stereotypies, the following scale was used: 0: asleep; 1: awake; quiet; 2: locomotion, head bobbing; 3: sniffing; 4: licking; 5: chewing/gnawing. For each rat, a global score was calculated by averaging the 3 stereotypy scores obtained at 10 min intervals.

[6] = Antagonism of apomorphine-induced stereotypies; format: in vivo; conditions: rat, in vivo; ip; apomorphine 0.5 mg/kg sc, 30 min after drug
Experimental: as §1, §2

SMILES: CCN1CCC[C@H]1CNC(=O)c1cc(S(=O)(=O)CC)c(N)cc1OC [(S)(-)-amisulpride, (S)-(-)-4-amino-N-[(1-ethylpyrrolidin-2-yl)methyl]-5-(ethylsulfonyl)-2-methoxybenzamide]
- ED50 (in vivo [1]): 100 mg/kg
- ED50 [2]: 15 mg/kg
- ED50 (in vivo [3]): > 100 mg/kg
- ED50 [4]: 1.2 mg/kg
- Potency in tests predictive of antipsychotic activity, compared with (R,S)-amisulpride ([4]; antagonism of apomorphine or amphetamine hyperlocomotion, in words): twice as potent
- Potency at antagonizing apomorphine-induced stereotypies, (S)(-)-amisulpride compared with (R,S)-amisulpride [5]: equipotent
- ED50 [6]: 100 mg/kg

SMILES: CCN1CCCC1CNC(=O)c1cc(S(=O)(=O)CC)c(N)cc1OC (racemic) [(R,S)-amisulpride, reference compound]
- ED50 (in vivo [1]): 100 mg/kg
- ED50 [2]: 30 mg/kg
- ED50 (in vivo [3]): > 100 mg/kg
- ED50 [4]: 3 mg/kg
- Potency at antagonizing apomorphine-induced stereotypies, (S)(-)-amisulpride compared with (R,S)-amisulpride [5]: equipotent
- ED50 [6]: 115 mg/kg
